We go through 23 compounds from patent publication US9464042B2, “Biguanide derivative, preparation method thereof, and pharmaceutical composition containing same as an active ingredient” (IMMUNOMET THERAPEUTICS INC., priority 2010, dated 2016).

In one series the test system is HCT116 cells. Put plainly: Inhibition of cancer cell proliferation (MTT, GIC50). The class given is cell-based. The following applies: Homo sapiens, HCT-116, 48 h incubation. On the procedure:
HCT116 cells derived from human colorectal cancer were used, and a cancer cell proliferation inhibition effect of a biguanide derivative was confirmed by measuring a concentration value (cell growth inhibition concentration, GIC50) at which cell growth was inhibited 50% using a 3-(4,5-dimethylthiazol-2-yl)-2,5-diphenyltetrazolium bromide (MTT) reagent.
First, the HCT116 cells were put on a 96-well plate and incubated for 24 hours to each have cell count of approximately 5000 in a DMEM medium containing 10% fetal bovine serum. Subsequently, to obtain the GIC50 value of each compound, 100 μM (or 200 μM), 25 μM, 6.25 μM, 1.56 μM or 0.39 μM of the compound was treated to each culture medium and then incubated for 48 hours. To confirm living cells after treatment with the compound, MTT was added to each culture medium and further incubated for 3 hours. Generated formazane crystal was dissolved using dimethyl sulfoxide (DMSO), and absorbance of the solution was measured at 560 nm. After the 48-hour incubation, a ratio of […] synthesized in the examples was indicated as cell viability (%) according to each administered concentration. A cell viability curve was plotted using the cell viability (%) and the calculated concentration value (GIC50) of the compound, at which 50% of the growth was inhibited, to confirm an effect on the inhibition of cancer cell proliferation.

The subject of the next series is AMPK. As to the kind of experiment: AMPK activation (AMPKα immunoassay kit, phospho-Thr172) in MCF7 cells. As to conditions: 24 h; for AMPK Activation Fold: 50 uM compound vs 0 (no compound); for AMPK Activation 50 uM (degree of phosphorylated AMPKα Thr172): 50 uM compound. Type of series: cell-based, human. On the set-up: AMPK Activation 50 uM (degree of phosphorylated AMPKα Thr172): unit not given here. On the procedure:
The MCF7 cells were put on a 6-well plate and incubated in a DMEM medium containing 10% fetal bovine serum in an incubator to which 5% CO2 was supplied to have a cell count of approximately 5×10^5. 50 μM of the derivatives synthesized in the examples were treated to the each culture medium, and the cells were incubated for 24 hours. Subsequently, the cells were lysed by a method presented in the operation manual of the AMPKα immunoassay kit, and 20 μg of cell lysates were yielded through protein assay.

By melting point is commonly meant the temperature, or range, at which the solid turns liquid. A word on the IC50: it is the concentration needed to halve the response being measured. For `CCCCN/C(=N\C1CCCC1)NC(=N)N.Cl` [Example 14, N4-cyclopentyl-N5-butyl biguanide hydrochloride], the melting point is 190 to 191 °C. In the series on HCT116 cells, this compound came in with an IC50 of over 100 µM. In addition, in the series with AMPK, the “AMPK Activation Fold” value is given as 3.4 and the “AMPK Activation 50 uM (degree of phosphorylated AMPKα Thr172)” value (from here on “AMPK Activation 50 uM”) came out at 23.2.
For `CCCCN/C(=N\C12CC3CC(CC(C3)C1)C2)NC(=N)N.Cl` [Example 16, N4-adamantyl-N5-butyl biguanide hydrochloride] the same measures were 193 to 194 °C, 34.7 µM, 6.7 and 35.3.
In the same order, the values of `CCCCN/C(=N\c1ccc(Br)cc1)NC(=N)N.Cl` [Example 17, N4-(4-bromo)phenyl-N5-butyl biguanide hydrochloride] are 195 to 196 °C, 126 µM, 3.9 and 26.3.
In the same order, the values of `CCCCN/C(=N\Cc1ccccc1Cl)NC(=N)N.Cl` [Example 19, N4-(2-chloro)benzyl-N5-butyl biguanide hydrochloride] are 147 to 148 °C, over 100 µM, 2.8 and 19.1.
With `CCCCN/C(=N\CCc1cccs1)NC(=N)N.Cl` [Example 24, N4-(thiophene-2-yl)ethyl-N5-butyl biguanide hydrochloride], the melting point was 131 to 133 °C. In the series on HCT116 cells, this compound yielded an IC50 of over 100 µM. For the same compound, in the series with AMPK, the “AMPK Activation Fold” value came out at 4.4 and the “AMPK Activation 50 uM” value stood at 29.9.
In the same order, the values of `Cl.N=C(N)N/C(=N/Cc1cccnc1)NC1CCCCC1` [Example 26, N4-(pyridine-3-yl)methyl-N5-cyclohexyl biguanide hydrochloride] are 265 to 266 °C, over 100 µM, 2.3 and 15.4.
In the same order, the values of `Cl.N=C(N)N/C(=N/CCc1ccccc1)NC1CCCCC1` [Example 27, N4-(phenethyl)-N5-cyclohexyl biguanide hydrochloride] are 183 to 184 °C, over 100 µM, 2.7 and 18.7.
In the same order, the values of `Cl.N=C(N)N/C(=N/Cc1cccnc1)Nc1ccccc1` [Example 28, N4-(pyridine-3-yl)methyl-N5-phenyl biguanide hydrochloride] are 189 to 190 °C, over 100 µM, 1.0 and 6.7.
With `Cl.N=C(N)N/C(=N/C1CCCC1)NCc1ccccc1` [Example 30, N4-cyclopentyl-N5-benzyl biguanide hydrochloride], the melting point lay within 166 to 167 °C. This compound returned an IC50 in the series with HCT116 cells of over 200 µM. For the same compound, in the series with AMPK, the “AMPK Activation Fold” value is listed as 1.4 and the “AMPK Activation 50 uM” value is 7.3.
Take `Cl.N=C(N)N/C(=N/Cc1ccco1)NCc1ccccc1` [Example 32, N4-(furan-2-yl)methyl-N5-benzyl biguanide hydrochloride]: the melting point lay within 116 to 117 °C. The half-maximal inhibitory concentration (IC50) with HCT116 cells was over 100 µM. Also, in the series with AMPK, the “AMPK Activation Fold” value was determined as 2.5 and the “AMPK Activation 50 uM” value came out at 16.9.
For `Cl.N=C(N)N/C(=N/C12CC3CC(CC(C3)C1)C2)NCCc1ccccc1` [Example 34, N4-adamantyl-N5-(phenethyl)biguanide hydrochloride] the same measures were 251 to 252 °C, 18.7 µM, 8.3 and 20.8.
For the compound `Cl.N=C(N)N/C(=N/c1ccc(C(F)(F)F)cc1)NCCc1ccccc1` [Example 37, N4-(4-trifluoromethyl)phenyl-N5-(phenethyl)biguanide hydrochloride], the melting point fell in the range of 150 to 151 °C. This compound registered an IC50 in the series with HCT116 cells of 12.4 µM. Further, in the series with AMPK, the “AMPK Activation Fold” value is reported as 4.1 and the “AMPK Activation 50 uM” value is reported as 10.2.
In the same order, the values of `Cl.N=C(N)N/C(=N/Cc1ccc2c(c1)OCO2)NCCc1ccccc1` [Example 39, N4-(benzo[1,3]dioxol-5-yl)methyl-N5-(phenethyl)biguanide hydrochloride] are 168 to 169 °C, over 100 µM, 0.9 and 6.4.
For `Cl.N=C(N)N/C(=N/Cc1ccccc1)NCCc1ccccc1` [Example 40, N4-benzyl-N5-(phenethyl)biguanide hydrochloride] the same measures were 165 to 166 °C, 85.6 µM, 3.9 and 20.5.
On to `Cl.N=C(N)N/C(=N/Cc1ccc(F)cc1)NCCc1ccccc1` [Example 41, N4-(4-fluoro)benzyl-N5-(phenethyl)biguanide hydrochloride], for which the melting point lay within 125 to 127 °C. In the series with HCT116 cells, this compound had a half-maximal inhibitory concentration (IC50) of 42.8 µM. Also, in the series on AMPK, the “AMPK Activation Fold” value is 4.0 and the “AMPK Activation 50 uM” value stood at 10.1.
In the same order, the values of `Cl.N=C(N)N/C(=N/CCc1cccs1)NCCc1ccccc1` [Example 42, N4-(thiophene-2-yl)ethyl-N5-(phenethyl)biguanide hydrochloride] are 183 to 185 °C, 76 µM, 5.9 and 31.5.
In the case of `Cl.N=C(N)N/C(=N/CCc1ccccc1)NCCc1ccccc1` [Example 43, N4-N5-di(phenethyl)biguanide hydrochloride], the melting point fell in the range of 183 to 184 °C. For the same compound, in the series on HCT116 cells, the concentration for half-maximal inhibition (IC50) was 70.2 µM. In addition, in the series with AMPK, the “AMPK Activation Fold” value is recorded as 4.5 and the “AMPK Activation 50 uM” value was determined as 23.8.
In the same order, the values of `C/N=C(/NC(=N)N)N(C)Cc1ccccc1.Cl` [Example 44, N4-methyl-N5,N5-(benzyl)(methyl)biguanide hydrochloride] are 120 to 122 °C, over 100 µM, 1.9 and 12.8.
Take `CCCC/N=C(/NC(=N)N)N(Cc1ccccc1)C(C)C.Cl` [Example 45, N4-butyl-N5,N5-(benzyl)(isopropyl)biguanide hydrochloride]: the melting point lay within 170 to 171 °C. The same compound displayed an IC50 with HCT116 cells of over 100 µM. Besides, in the series on AMPK, the “AMPK Activation Fold” value is 1.0 and the “AMPK Activation 50 uM” value came out at 7.1.
For `CN(CCc1ccccc1)/C(=N\CCc1ccccc1)NC(=N)N.Cl` [Example 47, N4-(phenethyl)-N5,N5-(phenethyl)(methyl)biguanide hydrochloride] the same measures were 144 to 145 °C, over 100 µM, 1.1 and 7.2.
In the same order, the values of `CCCCN(CC)/C(=N\CCc1ccccc1)NC(=N)N.Cl` [Example 48, N4-(phenethyl)-N5,N5-(butyl)(ethyl)biguanide hydrochloride] are 228 to 229 °C, over 100 µM, 1.0 and 6.6.
In the same order, the values of `CCCCCCN(CCCCCC)/C(=N\CCc1ccccc1)NC(=N)N.Cl` [Example 49, N4-(phenethyl)-N5,N5-dihexyl biguanide hydrochloride] are 138 to 140 °C, over 100 µM, 5.2 and 35.2.
`CCCCN(Cc1ccccc1)/C(=N\CCc1ccccc1)NC(=N)N.Cl` [Example 50, N4-(phenethyl)-N5,N5-(butyl)(benzyl)biguanide hydrochloride] had a melting point of 184 to 185 °C. In addition, inhibition with HCT116 cells was half-maximal at 59.1 µM (IC50). In the series with AMPK, the “AMPK Activation Fold” value was 4.0 and the “AMPK Activation 50 uM” value worked out at 21.4.
